Experimental data from patent US10793568B2, “Hormone receptor modulators for treating metabolic conditions and disorders” (ARDELYX, INC., priority 2016, dated 2020).

Key:
[1] = target: ligand binding domain of human FXR (Homo sapiens (Human), UniProt Q96RI1); assay: FXR ligand binding assay (LanthaScreen TR-FRET, SRC2-2 peptide recruitment); details: for pEC50: -log EC50, concentration required to produce 50% activation; for Emax: extent of activation relative to GW4064, read-out: % Efficacy
[2] = target: human Farnesoid X receptor ligand-binding domain/Gal4 DNA binding domain chimera (Homo sapiens (Human), UniProt Q96RI1); assay: Cell-based assay of FXR activation (FXR-UAS-bla HEK 293T beta-lactamase reporter); details: cellular FXR beta-lactamase reporter assay; for Emax: HEK-293T, extent of activation relative to GW4064, read-out: % Efficacy; for EC50: FXR-UAS-bla HEK 293T cells, 16 h, pEC50 = -log EC50
Procedure, shortened: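 Readout is cleavage of the CCF4 FRET substrate (409 nm excitation, blue 447 nm signal) by beta-lactamase, expressed under UAS control after a Gal4–human FXR LBD chimera is activated in HEK 293T cells. Compounds were added as 3-fold dilutions for 16 h at 37 °C in 2% charcoal-stripped FBS medium. Curves were fit to a 3-parameter logistic equation to give pEC50, with % activation relative to GW4064.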

Chain of ligand binding domain of human FXR (Q96RI1 262-486): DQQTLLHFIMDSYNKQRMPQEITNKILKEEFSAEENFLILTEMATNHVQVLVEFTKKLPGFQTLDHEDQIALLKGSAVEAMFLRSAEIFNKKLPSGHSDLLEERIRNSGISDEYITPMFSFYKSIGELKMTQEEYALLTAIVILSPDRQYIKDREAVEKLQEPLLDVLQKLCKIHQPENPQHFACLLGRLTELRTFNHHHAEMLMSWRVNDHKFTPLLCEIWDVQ
Chain of human Farnesoid X receptor ligand-binding domain/Gal4 DNA binding domain chimera (Q96RI1 262-486, change not shown): as the sequence (Q96RI1 262-486) above
Chain of human Farnesoid X receptor ligand-binding domain/Gal4 DNA binding domain chimera (P04386 1-147 partner): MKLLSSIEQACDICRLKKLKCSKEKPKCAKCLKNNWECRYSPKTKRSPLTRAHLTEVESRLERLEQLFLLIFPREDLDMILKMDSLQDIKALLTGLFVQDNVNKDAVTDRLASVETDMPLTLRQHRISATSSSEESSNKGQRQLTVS

Row | Structure (SMILES) | pEC50 [1] | Emax [1] | Emax [2] | EC50 [2]
1 | Cc1cccc(Cl)c1-c1noc(C2CC2)c1CO[C@@H]1C[C@@H]2C[C@H]1CN2c1nc2c(O[C@H]3CCOC3)cc(C(=O)O)cc2s1 [Compound I-274, 2-((1S,4S,5R)-5-((3-(2-chloro-6-methylphenyl)-5-cyclopropylisoxazol-4-yl)methoxy)-2-azabicyclo[2.2.1]heptan-2-yl)-4-(((S)-tetrahydrofuran-3-yl)oxy)benzo[d]thiazole-6-carboxylic acid] | 8.8 | 150% | 100% | 0.631 nM
2 | Cc1cccc(Cl)c1-c1noc(C2CC2)c1CO[C@@H]1C[C@@H]2C[C@H]1CN2c1nc2c(O[C@@H]3CCOC3)cc(C(=O)O)cc2s1 [Compound I-275, 2-((1S,4S,5R)-5-((3-(2-chloro-6-methylphenyl)-5-cyclopropylisoxazol-4-yl)methoxy)-2-azabicyclo[2.2.1]heptan-2-yl)-4-(((R)-tetrahydrofuran-3-yl)oxy)benzo[d]thiazole-6-carboxylic acid] | 8.8 | 140% | 106% | 0.631 nM
3 | Cc1cccc(C)c1-c1noc(C2CC2)c1CO[C@@H]1C[C@@H]2C[C@H]1CN2c1nc2c(C)cc(C(=O)O)cc2s1 [Compound I-276, 2-[(1S,4S,5R)-5-{[5-cyclopropyl-3-(2,6-dimethylphenyl)-1,2-oxazol-4-yl]methoxy}-2-azabicyclo[2.2.1]heptan-2-yl]-4-methyl-1,3-benzothiazole-6-carboxylic Acid] | 8.2 | 124% | 114% | 3.98 nM
4 | O=C(O)c1cc(F)c2nc(N3C[C@@H]4C[C@H]3C[C@H]4OCc3c(C4CCC5(CC4)CC5)noc3C3CC3)sc2c1 [Compound I-277, 2-[(1S,4S,5R)-5-[(5-cyclopropyl-3-{spiro[2.5]octan-6-yl}-1,2-oxazol-4-yl)methoxy]-2-azabicyclo[2.2.1]heptan-2-yl]-4-fluoro-1,3-benzothiazole-6-carboxylic Acid] | 8.1 | 106% | 123% | 158 nM
5 | O=C(O)c1cc(OC2CC2)c2nc(N3C[C@@H]4C[C@H]3C[C@H]4OCc3c(C4CCC5(CC4)CC5)noc3C3CC3)sc2c1 [Compound I-278, 4-cyclopropoxy-2-((1S,4S,5R)-5-((5-cyclopropyl-3-(spiro[2.5]octan-6-yl)isoxazol-4-yl)methoxy)-2-azabicyclo[2.2.1]heptan-2-yl)benzo[d]thiazole-6-carboxylic acid] | 7.7 | 96% | 98% | 10 nM
6 | O=C(O)c1cc(C2CCOCC2)c2nc(N3C[C@@H]4C[C@H]3C[C@H]4OCc3c(C4CCC5(CC4)CC5)noc3C3CC3)sc2c1 [Compound I-279] | 7.2 | 112% | 104% | 39.8 nM
7 | O=C(O)c1cc([C@H]2CCOC2)c2nc(N3C[C@@H]4C[C@H]3C[C@H]4OCc3c(C4CCC5(CC4)CC5)noc3C3CC3)sc2c1 [Compound I-280, 2-((1S,4S,5R)-5-((5-cyclopropyl-3-(spiro[2.5]octan-6-yl)isoxazol-4-yl)methoxy)-2-azabicyclo[2.2.1]heptan-2-yl)-4-((R)-tetrahydrofuran-3-yl)benzo[d]thiazole-6-carboxylic acid] | 7.3 | 115% | 105% | 25.1 nM
8 | O=C(O)c1cc([C@@H]2CCOC2)c2nc(N3C[C@@H]4C[C@H]3C[C@H]4OCc3c(C4CCC5(CC4)CC5)noc3C3CC3)sc2c1 [Compound I-281, 2-((1S,4S,5R)-5-((5-cyclopropyl-3-(spiro[2.5]octan-6-yl)isoxazol-4-yl)methoxy)-2-azabicyclo[2.2.1]heptan-2-yl)-4-((S)-tetrahydrofuran-3-yl)benzo[d]thiazole-6-carboxylic acid] | 7.4 | 104% | 105% | 15.8 nM
9 | O=C(O)c1cc(C2CCC2)c2nc(N3C[C@@H]4C[C@H]3C[C@H]4OCc3c(C4CCC5(CC4)CC5)noc3C3CC3)sc2c1 [Compound I-282, 4-cyclobutyl-2-((1S,4S,5R)-5-((5-cyclopropyl-3-(spiro[2.5]octan-6-yl)isoxazol-4-yl)methoxy)-2-azabicyclo[2.2.1]heptan-2-yl)benzo[d]thiazole-6-carboxylic acid] | 7.4 | 100% | 117% | 25.1 nM
10 | O=C(O)c1cc(C2CCCC2)c2nc(N3C[C@@H]4C[C@H]3C[C@H]4OCc3c(C4CCC5(CC4)CC5)noc3C3CC3)sc2c1 [Compound I-283, 4-cyclopentyl-2-((1S,4S,5R)-5-((5-cyclopropyl-3-(spiro[2.5]octan-6-yl)isoxazol-4-yl)methoxy)-2-azabicyclo[2.2.1]heptan-2-yl)benzo[d]thiazole-6-carboxylic acid] | 7 | 114% | 104% | 25.1 nM
11 | O=C(O)c1cc(C2CCC2)c2nc(N3C[C@H]4C[C@@H]3C[C@@H]4OCc3c(-c4c(Cl)cccc4Cl)noc3C3CC3)sc2c1 [Compound I-284, 4-cyclobutyl-2-[(1R,4R,5S)-5-{[5-cyclopropyl-3-(2,6-dichlorophenyl)-1,2-oxazol-4-yl]methoxy}-2-azabicyclo[2.2.1]heptan-2-yl]-1,3-benzothiazole-6-carboxylic Acid] | 9 | 116% | 100% | 3.16 nM
12 | O=C(O)c1cc(C2CCCC2)c2nc(N3C[C@H]4C[C@@H]3C[C@@H]4OCc3c(-c4c(Cl)cccc4Cl)noc3C3CC3)sc2c1 [Compound I-285, 4-cyclopentyl-2-[(1R,4R,5S)-5-{[5-cyclopropyl-3-(2,6-dichlorophenyl)-1,2-oxazol-4-yl]methoxy}-2-azabicyclo[2.2.1]heptan-2-yl]-1,3-benzothiazole-6-carboxylic Acid] | 8.9 | 116% | 100% | 2.51 nM
13 | COc1cc(Cl)c(-c2noc(C3CC3)c2CO[C@@H]2C[C@@H]3C[C@H]2CN3c2nc3c(F)cc(C(=O)O)cc3s2)c(Cl)c1 [Compound I-286, 2-[(1S,4S,5R)-5-{[5-cyclopropyl-3-(2,6-dichloro-4-methoxyphenyl)-1,2-oxazol-4-yl]methoxy}-2-azabicyclo[2.2.1]heptan-2-yl]-4-fluoro-1,3-benzothiazole-6-carboxylic Acid] | 8.7 | 130% | 108% | 39.8 nM
14 | O=C(O)c1cc(F)c2nc(N3C[C@@H]4C[C@H]3C[C@H]4OCc3c(-c4c(Cl)cc(O)cc4Cl)noc3C3CC3)sc2c1 [Compound I-287, 2-[(1S,4S,5R)-5-{[5-cyclopropyl-3-(2,6-dichloro-4-hydroxyphenyl)-1,2-oxazol-4-yl]methoxy}-2-azabicyclo[2.2.1]heptan-2-yl]-4-fluoro-1,3-benzothiazole-6-carboxylic Acid] | 9.2 | 134% | 113% | 63.1 nM
15 | COc1ccccc1-c1noc(C2CC2)c1CO[C@@H]1C[C@@H]2C[C@H]1CN2c1nc2c(F)cc(C(=O)O)cc2s1 [Compound I-288, 2-((1S,4S,5R)-5-((5-cyclopropyl-3-(2-methoxyphenyl)isoxazol-4-yl)methoxy)-2-azabicyclo[2.2.1]heptan-2-yl)-4-fluorobenzo[d]thiazole-6-carboxylic acid] | 8 | 188% | 112% | 3.98 nM
16 | COc1cccc(-c2noc(C3CC3)c2CO[C@@H]2C[C@@H]3C[C@H]2CN3c2nc3c(F)cc(C(=O)O)cc3s2)c1 [Compound I-289, 2-((1S,4S,5R)-5-((5-cyclopropyl-3-(3-methoxyphenyl)isoxazol-4-yl)methoxy)-2-azabicyclo[2.2.1]heptan-2-yl)-4-fluorobenzo[d]thiazole-6-carboxylic acid] | 6.9 | 70% |  | < 31.6 nM
17 | COc1ccc(-c2noc(C3CC3)c2CO[C@@H]2C[C@@H]3C[C@H]2CN3c2nc3c(F)cc(C(=O)O)cc3s2)cc1 [Compound I-290, 2-((1S,4S,5R)-5-((5-cyclopropyl-3-(4-methoxyphenyl)isoxazol-4-yl)methoxy)-2-azabicyclo[2.2.1]heptan-2-yl)-4-fluorobenzo[d]thiazole-6-carboxylic acid] | >4.5 |  |  | < 31.6 nM
18 | O=C(O)c1cc(F)c2nc(N3C[C@@H]4C[C@H]3C[C@H]4OCc3c(-c4ccccc4O)noc3C3CC3)sc2c1 [Compound I-291, 2-((1S,4S,5R)-5-((5-cyclopropyl-3-(2-hydroxyphenyl)isoxazol-4-yl)methoxy)-2-azabicyclo[2.2.1]heptan-2-yl)-4-fluorobenzo[d]thiazole-6-carboxylic acid] | 6.1 | 120% |  | < 31.6 nM
19 | O=C(O)c1cc(F)c2nc(N3C[C@@H]4C[C@H]3C[C@H]4OCc3c(-c4cccc(O)c4)noc3C3CC3)sc2c1 [Compound I-292, 2-((1S,4S,5R)-5-((5-cyclopropyl-3-(3-hydroxyphenyl)isoxazol-4-yl)methoxy)-2-azabicyclo[2.2.1]heptan-2-yl)-4-fluorobenzo[d]thiazole-6-carboxylic acid] | 6.5 | 120% |  | < 31.6 nM
20 | O=C(O)c1cc(F)c2nc(N3C[C@@H]4C[C@H]3C[C@H]4OCc3c(-c4ccc(O)cc4)noc3C3CC3)sc2c1 [Compound I-293, 2-((1S,4S,5R)-5-((5-cyclopropyl-3-(4-hydroxyphenyl)isoxazol-4-yl)methoxy)-2-azabicyclo[2.2.1]heptan-2-yl)-4-fluorobenzo[d]thiazole-6-carboxylic acid] | >4.5 |  |  | < 31.6 nM
